The target in this test is human F508del-CFTR (Homo sapiens, UniProt P13569, DEL508-508). Nature of the test: F508del-CFTR cell surface expression (corrector activity), DiscoveRx ß-galactosidase complementation chemiluminescence assay in recombinant U2OS cell line.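 For all read-outs here: U2OS cells co-expressing ProLink-tagged F508del-CFTR and a membrane-anchored enzyme acceptor, where more surface CFTR restores β-galactosidase activity measured by chemiluminescence.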 Particulars: for EC50: EC50, F508del-CFTR cell surface expression, U2OS cells, 16h compound incubation, geomean values; for Emax: U2OS, in relation to Emax of corrector lumacaftor (=100%), arithmetic mean values.
Sequence of human F508del-CFTR (P13569 with tags, fused parts or gaps DEL508-508): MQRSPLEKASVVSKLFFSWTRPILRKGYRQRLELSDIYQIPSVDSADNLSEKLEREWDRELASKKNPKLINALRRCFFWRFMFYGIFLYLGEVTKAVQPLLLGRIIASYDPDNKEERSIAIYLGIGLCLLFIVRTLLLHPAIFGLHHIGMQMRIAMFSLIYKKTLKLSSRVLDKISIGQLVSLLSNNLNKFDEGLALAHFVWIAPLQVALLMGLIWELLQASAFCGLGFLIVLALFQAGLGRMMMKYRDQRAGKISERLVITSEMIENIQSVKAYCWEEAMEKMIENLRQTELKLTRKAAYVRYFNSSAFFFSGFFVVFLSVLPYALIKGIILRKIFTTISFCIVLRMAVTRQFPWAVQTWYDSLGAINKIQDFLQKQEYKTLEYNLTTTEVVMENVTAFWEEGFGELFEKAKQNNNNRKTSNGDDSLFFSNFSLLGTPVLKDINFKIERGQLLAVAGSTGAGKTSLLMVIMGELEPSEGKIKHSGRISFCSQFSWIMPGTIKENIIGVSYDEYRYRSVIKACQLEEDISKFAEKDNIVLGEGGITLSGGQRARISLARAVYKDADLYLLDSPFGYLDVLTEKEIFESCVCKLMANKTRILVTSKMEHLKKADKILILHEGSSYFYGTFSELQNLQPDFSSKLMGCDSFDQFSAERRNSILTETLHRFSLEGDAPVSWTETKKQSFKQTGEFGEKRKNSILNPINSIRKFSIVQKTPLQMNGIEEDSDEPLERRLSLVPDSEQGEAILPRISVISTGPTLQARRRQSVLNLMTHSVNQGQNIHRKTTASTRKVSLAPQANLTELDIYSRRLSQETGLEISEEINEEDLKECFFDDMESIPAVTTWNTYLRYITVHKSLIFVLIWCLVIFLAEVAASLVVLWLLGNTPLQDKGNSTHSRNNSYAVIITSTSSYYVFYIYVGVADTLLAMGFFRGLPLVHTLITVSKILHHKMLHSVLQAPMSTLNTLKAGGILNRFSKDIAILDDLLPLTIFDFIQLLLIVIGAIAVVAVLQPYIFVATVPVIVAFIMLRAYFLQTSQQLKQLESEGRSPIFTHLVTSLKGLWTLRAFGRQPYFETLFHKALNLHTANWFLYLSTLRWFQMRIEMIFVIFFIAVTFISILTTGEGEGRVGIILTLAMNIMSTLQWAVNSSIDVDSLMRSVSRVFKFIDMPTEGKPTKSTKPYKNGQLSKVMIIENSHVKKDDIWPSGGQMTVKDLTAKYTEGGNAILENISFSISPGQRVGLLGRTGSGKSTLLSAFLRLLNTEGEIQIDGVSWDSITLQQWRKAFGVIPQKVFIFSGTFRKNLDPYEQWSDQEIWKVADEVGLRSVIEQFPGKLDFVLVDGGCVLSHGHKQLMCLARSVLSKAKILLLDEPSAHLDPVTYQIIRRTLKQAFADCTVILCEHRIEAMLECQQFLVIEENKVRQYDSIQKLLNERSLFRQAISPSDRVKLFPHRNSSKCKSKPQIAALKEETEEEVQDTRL

By EC50 is commonly meant the concentration needed to bring the measured effect to its halfway point. One may read the Emax as the greatest response seen or fitted, relative to the assay's reference. For the compound `CC(C)C[C@H]1C(=O)N2CCCC[C@@H]2C(=O)N[C@H](Cc2ccccc2)COc2cnc3ccc(F)cc3c2C(=O)N[C@H](C(=O)NCCc2cc(C(F)(F)F)no2)CC(=O)N1C` [Example 560, (9S,13S,19aR,22R)-22-benzyl-5-fluoro-13-isobutyl-12-methyl-7,11,14,20-tetraoxo-N-(2-(3-(trifluoromethyl)isoxazol-5-yl)ethyl)-7,8,9,10,11,12,13,14,17,18,19,19a,20,21,22,23-hexadecahydro-16H-pyrido[2′,1′:6,7][1]oxa[4,7,10,14]tetraazacycloheptadecino[17,16-c]quinoline-9-carboxamide], the EC50 is 0.114 µM and the Emax was 249%.

`Cc1cc2ccc3c(c2o1)C(=O)N[C@H](C(=O)NCCc1noc(C2CC2)n1)CC(=O)N(C)[C@@H](CC(C)C)C(=O)N(C)CC(=O)N[C@H](Cc1ccccc1)CO3` [Example 561, (8R,14S,18S)-8-benzyl-N-(2-(5-cyclopropyl-1,2,4-oxadiazol-3-yl)ethyl)-14-isobutyl-2,12,15-trimethyl-10,13,16,20-tetraoxo-7,8,9,10,11,12,13,14,15,16,17,18,19,20-tetradecahydrobenzofuro[7,6-p][1]oxa[4,7,10,14]tetraazacycloheptadecine-18-carboxamide]: the EC50 amounted to 0.437 µM and the Emax is 215%.

For the compound `Cc1cc2ccc3c(c2o1)C(=O)N[C@H](C(=O)NCCc1nc(C2CC2)no1)CC(=O)N(C)[C@@H](CC(C)C)C(=O)N(C)CC(=O)N[C@H](Cc1ccccc1)CO3` [Example 562, (8R,14S,18S)-8-benzyl-N-(2-(3-cyclopropyl-1,2,4-oxadiazol-5-yl)ethyl)-14-isobutyl-2,12,15-trimethyl-10,13,16,20-tetraoxo-7,8,9,10,11,12,13,14,15,16,17,18,19,20-tetradecahydrobenzofuro[7,6-p][1]oxa[4,7,10,14]tetraazacycloheptadecine-18-carboxamide], the 50% effective concentration (EC50) worked out at 0.444 µM and the maximum response (Emax) was 282%.

For the compound `CC(C)C[C@H]1C(=O)N2CCCC[C@@H]2C(=O)N[C@H](Cc2ccccc2)COc2cnc3cccc(F)c3c2C(=O)N[C@H](C(=O)NCCc2noc(C3CC3)n2)CC(=O)N1C` [Example 563, (9S,13S,19aR,22R)-22-benzyl-N-(2-(5-cyclopropyl-1,2,4-oxadiazol-3-yl)ethyl)-6-fluoro-13-isobutyl-12-methyl-7,11,14,20-tetraoxo-7,8,9,10,11,12,13,14,17,18,19,19a,20,21,22,23-hexadecahydro-16H-pyrido[2′,11:6,7][1]oxa[4,7,10,14]tetraazacycloheptadecino[17,16-c]quinoline-9-carboxamide], the EC50 was 0.125 µM and the Emax worked out at 330%.

As for `Cc1cc(CCNC(=O)[C@@H]2CC(=O)N(C)[C@@H](CC(C)C)C(=O)N(C)[C@H](COCc3ccccc3)C(=O)N[C@H](Cc3ccccc3)COc3cnc4ccccc4c3C(=O)N2)on1` [Example 564, (3S,7S,10R,13R)-13-benzyl-10-((benzyloxy)methyl)-7-isobutyl-6,9-dimethyl-N-(2-(3-methylisoxazol-5-yl)ethyl)-1,5,8,11-tetraoxo-1,2,3,4,5,6,7,8,9,10,11,12,13,14-tetradecahydro-[1]oxa[4,7,10,14]tetraazacycloheptadecino[17,16-c]quinoline-3-carboxamide], the EC50 is 0.049 µM and the Emax turned out to be 298%.

Regarding `COc1nc(C)cc2c1C(=O)N[C@H](C(=O)NCCc1cc(C3CC3)on1)CC(=O)N(C)[C@@H](CC(C)C)C(=O)N1CCCC[C@@H]1C(=O)N[C@H](Cc1ccccc1)CO2` [Example 565, (7S,11S,17aR,20R)-20-benzyl-N-(2-(5-cyclopropylisoxazol-3-yl)ethyl)-11-isobutyl-4-methoxy-2,10-dimethyl-5,9,12,18-tetraoxo-5,6,7,8,9,10,11,12,15,16,17,17a,18,19,20,21-hexadecahydro-14H-dipyrido[2,1-f:3′,4′-p][1]oxa[4,7,10,14]tetraazacycloheptadecine-7-carboxamide], the EC50 turned out to be 0.338 µM and the Emax amounted to 254%.

Turning to `COCC[C@@H]1C(=O)N[C@H](Cc2ccccc2)COc2cnc3ccccc3c2C(=O)N[C@H](C(=O)NCCc2cc(C)no2)CC(=O)N(C)[C@@H](CC(C)C)C(=O)N1C` [Example 566, (3S,7S,10R,13R)-13-benzyl-7-isobutyl-10-(2-methoxyethyl)-6,9-dimethyl-N-(2-(3-methylisoxazol-5-yl)ethyl)-1,5,8,11-tetraoxo-1,2,3,4,5,6,7,8,9,10,11,12,13,14-tetradecahydro-[1]oxa[4,7,10,14]tetraazacycloheptadecino[17,16-c]quinoline-3-carboxamide], the EC50 turned out to be 0.703 µM and the Emax was 278%.

In the case of `COc1nc(C)cc2c1C(=O)N[C@H](C(=O)NCCc1noc(C3CC3)n1)CC(=O)N(C)[C@@H](CC(C)C)C(=O)N1CCCC[C@@H]1C(=O)N[C@H](Cc1ccccc1)CO2` [Example 567, (7S,11S,17aR,20R)-20-benzyl-N-(2-(5-cyclopropyl-1,2,4-oxadiazol-3-yl)ethyl)-11-isobutyl-4-methoxy-2,10-dimethyl-5,9,12,18-tetraoxo-5,6,7,8,9,10,11,12,15,16,17,17a,18,19,20,21-hexadecahydro-14H-dipyrido[2,1-f:3′,4′-p][1]oxa[4,7,10,14]tetraazacycloheptadecine-7-carboxamide], the EC50 came out at 0.384 µM and the Emax was found to be 307%.

Consider `COc1nc(C)cc2c1C(=O)N[C@H](C(=O)NCCc1cc(C(F)(F)F)no1)CC(=O)N(C)[C@@H](CC(C)C)C(=O)N1CCCC[C@@H]1C(=O)N[C@H](Cc1ccccc1)CO2` [Example 568, (7S,11S,17aR,20R)-20-benzyl-11-isobutyl-4-methoxy-2,10-dimethyl-5,9,12,18-tetraoxo-N-(2-(3-(trifluoromethyl)isoxazol-5-yl)ethyl)-5,6,7,8,9,10,11,12,15,16,17,17a,18,19,20,21-hexadecahydro-14H-dipyrido[2,1-f:3′,4′-p][1]oxa[4,7,10,14]tetraazacycloheptadecine-7-carboxamide], for which the EC50 came to 0.391 µM and the Emax amounted to 238%.

On to `COc1nccc2c1C(=O)N[C@H](C(=O)NCCc1cc(C)no1)CC(=O)N(C)[C@@H](CC(C)C)C(=O)N1CCN(CC(C)C)C[C@@H]1C(=O)N[C@H](Cc1ccccc1)CO2` [Example 570, (7S,11S,20R,22aR)-20-benzyl-2,7-diisobutyl-14-methoxy-8-methyl-N-(2-(3-methylisoxazol-5-yl)ethyl)-6,9,13,22-tetraoxo-1,3,4,6,7,8,9,10,11,12,13,19,20,21,22,22a-hexadecahydro-2H-pyrazino[2,1-f]pyrido[3,4-p][1]oxa[4,7,10,14]tetraazacycloheptadecine-11-carboxamide], for which the EC50 is 0.374 µM and the maximal response (Emax) was 323%.

For `COc1nccc2c1C(=O)N[C@H](C(=O)NCCc1noc(C3CC3)n1)CC(=O)N(C)[C@@H](CC(C)C)C(=O)N(C)[C@H](CCc1nc(-c3ccccc3)no1)C(=O)N[C@H](Cc1ccccc1)CO2` [Example 571, (3R,6R,9S,13S)-3-benzyl-N-(2-(5-cyclopropyl-1,2,4-oxadiazol-3-yl)ethyl)-9-isobutyl-16-methoxy-7,10-dimethyl-5,8,11,15-tetraoxo-6-(2-(3-phenyl-1,2,4-oxadiazol-5-yl)ethyl)-2,3,4,5,6,7,8,9,10,11,12,13,14,15-tetradecahydropyrido[3,4-p][1]oxa[4,7,10,14]tetraazacycloheptadecine-13-carboxamide], the EC50 amounted to 0.047 µM and the Emax was found to be 347%.

As to `COc1cccc(CCNC(=O)[C@@H]2CC(=O)N(C)[C@@H](CC(C)C)C(=O)N(C)[C@@H](C)C(=O)N[C@H](Cc3ccccc3)COc3cnc4ccccc4c3C(=O)N2)c1` [Example 572, (3S,7S,10S,13R)-13-benzyl-7-isobutyl-N-(3-methoxyphenethyl)-6,9,10-trimethyl-1,5,8,11-tetraoxo-1,2,3,4,5,6,7,8,9,10,11,12,13,14-tetradecahydro-[1]oxa[4,7,10,14]tetraazacycloheptadecino[17,16-c]quinoline-3-carboxamide], the EC50 came to 0.701 µM and the Emax was determined as 200%.

Take `Cc1cc(CCNC(=O)[C@@H]2CC(=O)N(C)[C@@H](CC(C)C)C(=O)N(C)[C@H](C)C(=O)N[C@H](Cc3ccccc3)COc3cnc4ccccc4c3C(=O)N2)on1` [Example 573, (3S,7S,10R,13R)-13-benzyl-7-isobutyl-6,9,10-trimethyl-N-(2-(3-methylisoxazol-5-yl)ethyl)-1,5,8,11-tetraoxo-1,2,3,4,5,6,7,8,9,10,11,12,13,14-tetradecahydro-[1]oxa[4,7,10,14]tetraazacycloheptadecino[17,16-c]quinoline-3-carboxamide]: the 50% effective concentration (EC50) came out at 0.423 µM and the Emax came out at 306%.

For the compound `CC(C)C[C@H]1C(=O)N(C)[C@H](C)C(=O)N[C@H](Cc2ccccc2)COc2cnc3ccccc3c2C(=O)N[C@H](C(=O)NCCc2cc(C3CC3)no2)CC(=O)N1C` [Example 574, (3S,7S,10R,13R)-13-benzyl-N-(2-(3-cyclopropylisoxazol-5-yl)ethyl)-7-isobutyl-6,9,10-trimethyl-1,5,8,11-tetraoxo-1,2,3,4,5,6,7,8,9,10,11,12,13,14-tetradecahydro-[1]oxa[4,7,10,14]tetraazacycloheptadecino[17,16-c]quinoline-3-carboxamide], the half-maximal effective concentration (EC50) is 0.308 µM and the Emax is 319%.

Regarding `COc1nccc2c1C(=O)N[C@H](C(=O)NCCc1noc(C3CC3)n1)CC(=O)N(C)[C@@H](CC(C)C)C(=O)N(C)[C@@H](CCc1nc(-c3ccccc3)no1)C(=O)N[C@H](Cc1ccccc1)CO2` [Example 577, (3R,6S,9S,13S)-3-benzyl-N-(2-(5-cyclopropyl-1,2,4-oxadiazol-3-yl)ethyl)-9-isobutyl-16-methoxy-7,10-dimethyl-5,8,11,15-tetraoxo-6-(2-(3-phenyl-1,2,4-oxadiazol-5-yl)ethyl)-2,3,4,5,6,7,8,9,10,11,12,13,14,15-tetradecahydropyrido[3,4-p][1]oxa[4,7,10,14]tetraazacycloheptadecine-13-carboxamide], the EC50 is 0.6 µM and the Emax came to 268%.

The values are drawn from US20240208992A1, “MACROCYCLES AS CFTR MODULATORS” (Idorsia Pharmaceuticals Ltd, priority 2021, published 2024).
